US20030068383A1, “Time release nutritional supplement” (priority 2001, published 2003)

Tests used:
[1] = ingested dose, human body; cited from earlier work
[2] = Acid damage to Ribose loaded into 1% cross-linked resin with boiling water; format: physicochemical; details: 5.9 grams Ribose

| Structure (SMILES) | Dose typically associated with side effects (diarrhea, gas, flatulence, nausea, stomach cramps) [1] | Fate of Ribose within the resin matrix ([2]; 2 grams 1% cross-linked sulfonated resin, 10 grams water preheated to boiling) | Fate of Ribose within the resin matrix ([2]; 2 grams sulfonated resin ion exchanged with Li or K salt, 10 grams water) |
| --- | --- | --- | --- |
| CN(CC(=O)O)C(=N)N [creatine, Creatine] | over 5 grams | – | – |
| O=C[C@H](O)[C@H](O)[C@H](O)CO [Ribose, D-Ribose] | – | destroyed | active and useful |
